Assay results taken from patent publication EP3875080B1, “DOSAGE FORM PROVIDING PROLONGED RELEASE OF […] SALT” (priority 2020, dated 2021).
Structures can show the parent of a compound that is named as a salt. Where two headings read alike, the source gives them in different places.

Assays:
[1] = intrinsic dissolution (dissolution rate), Wood's apparatus; format: physicochemical
Experimental: 100 mg of Tapentadol, either in form of the hydrochloride salt or the dihydrogenphosphate salt (mixed form [batch with fine particles], pure hemihydrate or pure anhydrate) were compressed at a compressing force of 200 kg (gravitational) for 1 minute at a surface of 0.5 cm^2. The thus obtained compressed samples were investigated for their dissolution rate in a Wood's apparatus at 37 °C in 900 mL of dissolution medium at different pH values and a rotational speed of the paddle of 50 rpm.

[2] = in vivo, cited from earlier work
[3] = thermodynamic solubility (saturation solubility); format: physicochemical; conditions: for solubility thermodynamic at 24 h: thermodynamic from solid, read-out: thermodynamic solubility, assay expressed as base
Experimental: The thermodynamic solubility of Tapentadol hydrochloride and of Tapentadol dihydrogen-phosphate (mixed form, batch with fine particles) was determined as saturation solubility in various media at various pH values. The solutions were stirred for 24 hours at 25 °C and the pH values of the solutions at the start and at the end of the experiments were measured. The dissolved amount of Tapentadol was quantified by HPLC (free base of Tapentadol).

[4] = in vitro dissolution of Tapentadol from tablets, paddle apparatus Ph. Eur.; format: physicochemical; conditions: for ethanol induced dose dumping: 0.1 N HCl (pH 1.0) containing 40 vol.-% ethanol compared to pH 1.0
Experimental: The in vitro dissolution of Tapentadol from the tablets (drug load 250 mg, C-1, I-1 and I-3) was measured in a paddle apparatus in accordance with Ph. Eur., equipped with sinker, at a rotational speed of 50 rpm at 37 °C in 900 ml of different dissolution media having different pH values. The experimental results are compiled in the table here below:
The in vitro dissolution of Tapentadol from the tablets (drug load 250 mg, I-4) was measured in a paddle apparatus in accordance with Ph. Eur., equipped with sinker, at a rotational speed of 50 rpm at 37 °C in 900 ml of 0.1 N HCl without ethanol (pH 1.0) and in 0.1 N HCl with 40 vol.-% ethanol (pH 1.0).

## CC[C@@H](c1cccc(O)c1)[C@@H](C)CN(C)C.O=P(O)(O)O [Tapentadol dihydrogenphosphate anhydrate]
[1]; pH 1.2, 0 min
  intrinsic dissolution (dissolution rate): 0%
[1]; pH 1.2, 1 min
  intrinsic dissolution (dissolution rate): 15%
[1]; pH 1.2, 3 min
  intrinsic dissolution (dissolution rate): 37%
[1]; pH 1.2, 5 min
  intrinsic dissolution (dissolution rate): 57%
[1]; pH 1.2, 7 min
  intrinsic dissolution (dissolution rate): 75%
[1]; pH 1.2, 9 min
  intrinsic dissolution (dissolution rate): 85%
[1]; pH 6.8, 0 min
  intrinsic dissolution (dissolution rate): 0%
[1]; pH 6.8, 1 min
  intrinsic dissolution (dissolution rate): 13%
[1]; pH 6.8, 3 min
  intrinsic dissolution (dissolution rate): 36%
[1]; pH 6.8, 5 min
  intrinsic dissolution (dissolution rate): 66%
[1]; pH 6.8, 7 min
  intrinsic dissolution (dissolution rate): 90%
[1]; pH 6.8, 9 min
  intrinsic dissolution (dissolution rate): 96%

## CN1CC[C@]23c4c5ccc(O)c4O[C@H]2C(=O)CC[C@@]3(O)[C@H]1C5 [Oxymorphone]
[2]
  Maximum individual Cmax ratio with 40% alcohol: 2.70
  mean increase in Cmax ratio relative to drug co-ingested with 0% alcohol: 1.70

## Tapentadol dihydrogenphosphate
[3]; 0.1 M HCl, pH start 1.11
  pH end: 2.55
[3]; 0.1 M HCl, pH start 1.11, 24 hours at 25 °C
  thermodynamic solubility, assay expressed as base: 24.3 g/100 mL
[3]; 0.15N NaOH, pH start 13.08
  pH end: 8.09
[3]; 0.15N NaOH, pH start 13.08, 24 hours at 25 °C
  thermodynamic solubility, assay expressed as base: 6.5 g/100 mL
[3]; SIF sp pH 6.8, pH start 6.82
  pH end: 2.81
[3]; SIF sp pH 6.8, pH start 6.82, 24 hours at 25 °C
  thermodynamic solubility, assay expressed as base: 20.2 g/100 mL
[3]; acetate pH 4.5, pH start 4.54
  pH end: 2.81
[3]; acetate pH 4.5, pH start 4.54, 24 hours at 25 °C
  thermodynamic solubility, assay expressed as base: 21.2 g/100 mL
[3]; citrate pH 6.8, pH start 6.83
  pH end: 3.15
[3]; citrate pH 6.8, pH start 6.83, 24 hours at 25 °C
  thermodynamic solubility, assay expressed as base: 19.3 g/100 mL
[3]; citrate pH 7.4, pH start 7.39
  pH end: 3.16
[3]; citrate pH 7.4, pH start 7.39, 24 hours at 25 °C
  thermodynamic solubility, assay expressed as base: 19.0 g/100 mL
[3]; under all tested conditions
  thermodynamic solubility compared with Tapentadol hydrochloride: below that of Tapentadol hydrochloride
[3]; water
  pH end: 2.75
[3]; water, 24 hours at 25 °C
  thermodynamic solubility, assay expressed as base: 21.4 g/100 mL
[4]
  ethanol induced dose dumping: no ethanol induced dose dumping
[4]; 0.1 N HCl (pH 1.0) containing 40 vol.-% ethanol, same excipients in same amounts
  additional retardant effect in aqueous ethanol compared to Tapentadol hydrochloride: significantly stronger
[4]; pH 4.5, aqueous buffer without ethanol
  time difference to a release of 70% compared to Tapentadol hydrochloride: more than one
[1]; at all tested pH values
  dissolution rate compared with Tapentadol hydrochloride: significantly slower dissolution rate
[1]; pH 1.0, 0 min
  intrinsic dissolution (dissolution rate): 0%
[1]; pH 1.0, 1 min
  intrinsic dissolution (dissolution rate): 14%
[1]; pH 1.0, 3 min
  intrinsic dissolution (dissolution rate): 35%
[1]; pH 1.0, 5 min
  intrinsic dissolution (dissolution rate): 56%
[1]; pH 1.0, 7 min
  intrinsic dissolution (dissolution rate): 78%
[1]; pH 1.0, 9 min
  intrinsic dissolution (dissolution rate): 84%
[1]; pH 4.5, 0 min
  intrinsic dissolution (dissolution rate): 0%
[1]; pH 4.5, 1 min
  intrinsic dissolution (dissolution rate): 12%
[1]; pH 4.5, 3 min
  intrinsic dissolution (dissolution rate): 30%
[1]; pH 4.5, 5 min
  intrinsic dissolution (dissolution rate): 49%
[1]; pH 4.5, 7 min
  intrinsic dissolution (dissolution rate): 73%
[1]; pH 4.5, 9 min
  intrinsic dissolution (dissolution rate): 86%
[1]; pH 6.8, 0 min
  intrinsic dissolution (dissolution rate): 0%
[1]; pH 6.8, 1 min
  intrinsic dissolution (dissolution rate): 11%
[1]; pH 6.8, 3 min
  intrinsic dissolution (dissolution rate): 29%
[1]; pH 6.8, 5 min
  intrinsic dissolution (dissolution rate): 48%
[1]; pH 6.8, 7 min
  intrinsic dissolution (dissolution rate): 66%
[1]; pH 6.8, 9 min
  intrinsic dissolution (dissolution rate): 77%
[1]; pH 7.4, 0 min
  intrinsic dissolution (dissolution rate): 0%
[1]; pH 7.4, 1 min
  intrinsic dissolution (dissolution rate): 12%
[1]; pH 7.4, 3 min
  intrinsic dissolution (dissolution rate): 30%
[1]; pH 7.4, 5 min
  intrinsic dissolution (dissolution rate): 46%
[1]; pH 7.4, 7 min
  intrinsic dissolution (dissolution rate): 63%
[1]; pH 7.4, 9 min
  intrinsic dissolution (dissolution rate): 78%

## COc1ccc2c3c1O[C@H]1C(=O)CC[C@H]4[C@@H](C2)N(C)CC[C@]314 [Hydrocodone]
[2]
  Maximum individual Cmax ratio with 40% alcohol: 3.9
  mean increase in Cmax ratio relative to drug co-ingested with 0% alcohol: 2.3

## CC[C@@H](c1cccc(O)c1)[C@@H](C)CN(C)C [Tapentadol hydrochloride, reference compound]
[3]; 0.1 M HCl, pH start 1.11
  pH end: 0.83
[3]; 0.15N NaOH, pH start 13.08
  pH end: 8.21
[3]; SIF sp pH 6.8, pH start 6.82
  pH end: 6.23
[3]; acetate pH 4.5, pH start 4.54
  pH end: 4.29
[3]; citrate pH 6.8, pH start 6.83
  pH end: 6.17
[3]; citrate pH 7.4, pH start 7.39
  pH end: 6.33
[3]; pH 1.11, aqueous buffer, 0.1 M HCl, pH start 1.11, 24 hours at 25 °C
  solubility thermodynamic at 24 h: 312 mg/mL
[3]; pH 13.08, aqueous buffer, 0.15N NaOH, pH start 13.08, 24 hours at 25 °C
  solubility thermodynamic at 24 h: 66 mg/mL
[3]; water
  pH end: 4.63
[4]
  ethanol induced dose dumping: no ethanol induced dose dumping
[1]; pH 1.0, 0 min
  intrinsic dissolution (dissolution rate): 0%
[1]; pH 1.0, 1 min
  intrinsic dissolution (dissolution rate): 52%
[1]; pH 1.0, 3 min
  intrinsic dissolution (dissolution rate): 95%
[1]; pH 1.0, 5 min
  intrinsic dissolution (dissolution rate): 99%
[1]; pH 1.0, 7 min
  intrinsic dissolution (dissolution rate): 99%
[1]; pH 1.0, 9 min
  intrinsic dissolution (dissolution rate): 99%
[1]; pH 4.5, 0 min
  intrinsic dissolution (dissolution rate): 0%
[1]; pH 4.5, 1 min
  intrinsic dissolution (dissolution rate): 60%
[1]; pH 4.5, 3 min
  intrinsic dissolution (dissolution rate): 91%
[1]; pH 4.5, 5 min
  intrinsic dissolution (dissolution rate): 95%
[1]; pH 4.5, 7 min
  intrinsic dissolution (dissolution rate): 95%
[1]; pH 4.5, 9 min
  intrinsic dissolution (dissolution rate): 96%
[1]; pH 6.8, 0 min
  intrinsic dissolution (dissolution rate): 0%
[1]; pH 6.8, 1 min
  intrinsic dissolution (dissolution rate): 38%
[1]; pH 6.8, 3 min
  intrinsic dissolution (dissolution rate): 79%
[1]; pH 6.8, 5 min
  intrinsic dissolution (dissolution rate): 92%
[1]; pH 6.8, 7 min
  intrinsic dissolution (dissolution rate): 94%
[1]; pH 6.8, 9 min
  intrinsic dissolution (dissolution rate): 94%
[1]; pH 7.4, 0 min
  intrinsic dissolution (dissolution rate): 0%
[1]; pH 7.4, 1 min
  intrinsic dissolution (dissolution rate): 27%
[1]; pH 7.4, 3 min
  intrinsic dissolution (dissolution rate): 65%
[1]; pH 7.4, 5 min
  intrinsic dissolution (dissolution rate): 80%
[1]; pH 7.4, 7 min
  intrinsic dissolution (dissolution rate): 89%
[1]; pH 7.4, 9 min
  intrinsic dissolution (dissolution rate): 92%

## CC[C@@H](c1cccc(O)c1)[C@@H](C)CN(C)C [Tapentadol, (-)-(1R,2R)-3-(3-dimethylamino-1-ethyl-2-methyl-propyl)-phenol]
[2]; 100 mg
  Maximum individual Cmax ratio with 40% alcohol: 4.38
  mean increase in Cmax ratio relative to drug co-ingested with 0% alcohol: 1.48
[2]; 250 mg
  Maximum individual Cmax ratio with 40% alcohol: 2.67
  mean increase in Cmax ratio relative to drug co-ingested with 0% alcohol: 1.28

## CC[C@@H](c1cccc(O)c1)[C@@H](C)CN(C)C.CC[C@@H](c1cccc(O)c1)[C@@H](C)CN(C)C.O.O=P(O)(O)O.O=P(O)(O)O [Tapentadol dihydrogenphosphate hemihydrate]
[1]; pH 1.2, 0 min
  intrinsic dissolution (dissolution rate): 0%
[1]; pH 1.2, 1 min
  intrinsic dissolution (dissolution rate): 14%
[1]; pH 1.2, 3 min
  intrinsic dissolution (dissolution rate): 37%
[1]; pH 1.2, 5 min
  intrinsic dissolution (dissolution rate): 54%
[1]; pH 1.2, 7 min
  intrinsic dissolution (dissolution rate): 72%
[1]; pH 1.2, 9 min
  intrinsic dissolution (dissolution rate): 84%
[1]; pH 6.8, 0 min
  intrinsic dissolution (dissolution rate): 0%
[1]; pH 6.8, 1 min
  intrinsic dissolution (dissolution rate): 12%
[1]; pH 6.8, 3 min
  intrinsic dissolution (dissolution rate): 36%
[1]; pH 6.8, 5 min
  intrinsic dissolution (dissolution rate): 66%
[1]; pH 6.8, 7 min
  intrinsic dissolution (dissolution rate): 80%
[1]; pH 6.8, 9 min
  intrinsic dissolution (dissolution rate): 83%
